Measured values taken from patent publication US20060009637A1, “Molecules as produced by endothermic chemical reactions with anhydrous D-ribose” (priority 2004, published 2006).
Values belong to the compound of their own block, whether it stands above or below them.

What was measured:
[1] = toxicity of the monohydrate of D-ribose
solubility in water = type: physicochemical; conditions: for solubility in water: result in words, monohydrate
heart failure = conditions: people with heart failure; cited from earlier work

solubility in water (solubility in water; listed as H2O-ribose product): exceptionally high
solubility in water (solubility in water): very soluble in water
Structure (SMILES): O.O=C[C@H](O)[C@H](O)[C@H](O)CO [ribose monohydrate, D-ribose monohydrate]
toxicity [1]: virtually no toxicity

Structure (SMILES): CN(CC(=O)O)C(=N)N [creatine]
ejection fraction (heart failure): did not improve
skeletal muscle action (heart failure): increasing both strength and endurance

water needed to dissolve a kilogram of anhydrous D-ribose (solubility in water; per kilogram of anhydrous D-ribose, gives clear translucent amber viscous solution if enough time is allowed): less than 168 grams
Structure (SMILES): O=C[C@H](O)[C@H](O)[C@H](O)CO [anhydrous D-ribose, D-ribose]
